{"source": "patent US20210169910A1", "about": "“OLEUROPEIN FOR USE IN REDUCING POST-PRANDIAL GLYCAEMIA” (Università degli Studi di Roma \"La Sapienza\", priority 2017, published 2021)", "assay_type_in_all_cases": "in vivo, human", "key": {"p47phox": {"test_system": "p47phox", "assay": "Western blot analysis of platelet p47phox phosphorylation, post-prandial cross-over study", "conditions": "healthy subjects (n=5), 20 mg immediately before lunch, T120 vs T0", "description": "(§1) The design was a randomized, double blind, placebo controlled, crossover study (FIG. 1). Participants were randomized to receive 20 mg of oleuropein or 20 mg of placebo immediately before a lunch. The randomization was carried out by a procedure based on a random numeric sequence. Placebo and active capsules were identical in appearance and both were odourless. The quality control on both capsules was performed confirming their safety. None of the participants were receiving any vitamin or antioxidant supplements, statin or antiplatelet drugs in the month preceding the beginning of the study. […] Participants were assessed at baseline (T0) and two hours after lunch (T120). Glycaemic profile, which included glucose, insulin, dipeptidyl-peptidase-4 (DPP-4) activity and glucagon-like peptide-(GLP-1) and oxidative stress, which included sNox2-dp, 8-iso-PGF2α and platelet p47phox phosphorylation, were analysed before and two hours after meal. […]\np47^phox phosphorylation was analysed in platelets prepared as previously described [13 Carnevale et al., 2014 a)]. […] Then, the membranes were incubated with goat anti-rabbit secondary antibody (Santa Cruz Biotechnology—Product Code sc2004, 1:5000) or with goat anti-mouse secondary antibody (Santa Cruz Biotechnology—Product Code sc2005, 1:5000) and then the immune complexes were detected by enhanced chemiluminescence substrate. […]"}, "GLP1": {"test_system": "GLP1", "assay": "Serum glucagon like peptide-1 (GLP1) concentration, post-prandial cross-over study", "conditions": "healthy subjects (n=20), 20 mg immediately before lunch, T120 vs T0", "description": "as §1, with “study. Others exclusion criteria were: i) presence of malignancy, ii) presence of chronic inflammatory diseases, iii) alcohol intake, iv) smoking, v) pregnant or breast-feeding, vi) age less than 18 years.” for “study.”\nCommercial ELISA Kit (DRG International) was used for the quantitative determination of bioactive GLP1 (7-36) and (9-36) levels in serum. GLP1 values are expressed as pmol/L."}, "DPP-4": {"test_system": "DPP-4", "assay": "Serum dipeptidyl peptidase-4 (DPP-4) activity, post-prandial cross-over study", "conditions": "healthy subjects (n=20), 20 mg immediately before lunch, T120 vs T0", "description": "as §1, with “study. Others exclusion criteria were: i) presence of malignancy, ii) presence of chronic inflammatory diseases, iii) alcohol intake, iv) smoking, v) pregnant or breast-feeding, vi) age less than 18 years.” for “study.”\nDDP4 activity was evaluated in serum samples by a commercial assay (Sigma Aldrich). […] DDP4 activity was expressed as μU/ml, where one unit of DPP4 is the amount of enzyme that will hydrolyze the DPP4 substrate to yield 1.0 μmole of AMC per minute at 37° C."}, "8-iso-PGF2α": {"test_system": "8-iso-PGF2α", "assay": "Serum isoprostanes (8-iso-PGF2α-III) enzyme immunoassay, post-prandial cross-over study", "conditions": "healthy subjects (n=20), 20 mg immediately before lunch, T120 vs T0", "description": "as §1, with “study. Others exclusion criteria were: i) presence of malignancy, ii) presence of chronic inflammatory diseases, iii) alcohol intake, iv) smoking, v) pregnant or breast-feeding, vi) age less than 18 years.” for “study.”\nSerum isoprostanes (8-iso-PGF2α-III) were measured by the enzyme immunoassay method (DRG International) and expressed as pmol/L. Intra-assay and inter-assay coefficients of variation were <10%."}, "[1]": {"assay": "Serum glucose concentration, post-prandial cross-over study", "description": "as §1, with “study. Others exclusion criteria were: i) presence of malignancy, ii) presence of chronic inflammatory diseases, iii) alcohol intake, iv) smoking, v) pregnant or breast-feeding, vi) age less than 18 years.” for “study.”\n(§2) Glucose and insulin were measured in serum samples using ELISA commercial Kit (Arbor Assay and DRG International, respectively). Glucose values were expressed as mg/dl whereas insulin values were expressed as μIU/ml."}, "insulin": {"test_system": "insulin", "assay": "Serum insulin concentration, post-prandial cross-over study", "conditions": "healthy subjects (n=20), 20 mg immediately before lunch, T120 vs T0", "description": "as §1, with “study. Others exclusion criteria were: i) presence of malignancy, ii) presence of chronic inflammatory diseases, iii) alcohol intake, iv) smoking, v) pregnant or breast-feeding, vi) age less than 18 years.” for “study.”\nas §2"}, "Nox2": {"test_system": "Nox2", "assay": "Serum Nox2 measured as soluble Nox2-derived peptide (sNox2dp) by ELISA, post-prandial cross-over study", "conditions": "healthy subjects (n=20), 20 mg immediately before lunch, T120 (2 h after meal) vs T0", "description": "as §1\nSerum Nox2 was measured as soluble Nox2-derived peptide (sNOX2dp) with an ELISA method, which was partly modified in comparison to that previously reported (Pignatelli et al., 2010; WO 2010142794 A1). […]\n4) quantification of immobilized antibody enzyme conjugates by monitoring HRP activities in the presence of the substrate 3,3′,5,5′-tetramethylbenzidine (TMB). […] Values were expressed as pg/ml; intra-assay and inter-assay coefficients of variation were <10%."}}}
{"smiles": "C/C=C1/[C@H](O[C@@H]2O[C@H](CO)[C@@H](O)[C@H](O)[C@H]2O)OC=C(C(=O)OC)[C@H]1CC(=O)OCCc1ccc(O)c(O)c1", "note": "[oleuropein]", "values": [{"measurement": "platelet p47phox phosphorylation, Δ change compared to baseline", "setting": "p47phox", "value": 42, "unit": "%"}, {"measurement": "GLP1, Δ change compared to baseline", "setting": "GLP1", "value": 19, "unit": "%"}, {"measurement": "DPP-4 activity, Δ change compared to baseline", "setting": "DPP-4", "value": 35, "unit": "%"}, {"measurement": "8-iso-PGF2α, Δ change compared to baseline", "setting": "8-iso-PGF2α", "value": 8, "unit": "%"}, {"measurement": "blood glucose, Δ change compared to baseline", "setting": "[1]; healthy subjects (n=20), 20 mg immediately before lunch, T120 vs T0", "value": 2, "unit": "%"}, {"measurement": "average reduction of glucose", "setting": "[1]; healthy subjects, 20 mg versus placebo, post-prandial", "value": 14, "unit": "mg/dL"}, {"measurement": "blood insulin, Δ change compared to baseline", "setting": "insulin", "value": 116, "unit": "%"}, {"measurement": "sNox2-dp, Δ change compared to baseline", "setting": "Nox2", "value": 25, "unit": "%"}]}
